Assay results: patent US20070099915A1, “INHIBITORS OF THE HIV INTEGRASE ENZYME” (PFIZER INC., priority 2005, published 2007)
Like-named read-outs stand apart in the source and are kept apart here.

Legend:
[1] = molecular target: T1, Full-length wild type HIV-1 integrase (SF1) (Human immunodeficiency virus type 1 group M subtype B, UniProt P04585); experiment: Integrase strand-transfer scintillation proximity assay; type: biochemical
T1 construct: made in house; host or cells: E. coli BL21 (DE3)

[2] = system: HIV-1 RF virus in CEM-SS cells; experiment: HIV-1 cell protection assay (XTT dye reduction); type: cell-based
Summary of the method: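 Infected CEM-SS cultures incubated six days, then XTT with phenazine methosulfate added for 4 h; viability read as formazan absorbance at 450 nm. Formazan expressed as percent of uninfected, compound-free cells; CC50 from uninfected treated cells, therapeutic index as CC50/EC50.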

[3] = strand-transfer SPA, 246 nM integrase, 50 nM host DNA, 37° C., 50 min, read-out: IC50
[4] = Human immunodeficiency virus 1, 144 h, RF strain of HIV-1, CEM-SS cells, XTT read-out after six days, read-out: EC50
[5] = Human immunodeficiency virus 1, CEM-SS, 144 h

Row | SMILES | IC50 [1, 3] | EC50 [2, 4] | EC50 [2, 5] | IC50 [1]
1 | O=C1c2ncc3c(c(CCCOCCN4CCOCC4)cn3Cc3ccc(F)cc3)c2CCN1O [Example 128, 3-(4-fluorobenzyl)-7-hydroxy-1-[3-(2-morpholin-4-ylethoxy)propyl]-3,7,8,9-tetrahydro-6H-pyrrolo[2,3-c]-1,7-naphthyridin-6-one] | 21 nM | 5 nM | – | –
2 | Cc1cc2c(ncc3c2c(CN(C)C)cn3Cc2ccc(F)cc2)c(=O)n1O [Example 42, 1-[(dimethylamino)methyl]-3-(4-fluorobenzyl)-7-hydroxy-8-methyl-3,7-dihydro-6H-pyrrolo[2,3-c]-1,7-naphthyridin-6-one] | 8.1 nM | 0.43 nM | – | –
3 | Cc1cc2c(ncc3c2c(CN2CCN(C)CC2)cn3Cc2ccc(F)cc2)c(=O)n1O [Example 95, 3-(4-fluorobenzyl)-7-hydroxy-8-methyl-1-[(4-methylpiperazin-1-yl)methyl]3,7-dihydro-6H-pyrrolo[2,3-c]-1,7-naphthyridin-6-one] | 14 nM | 0.45 nM | – | –
4 | Cc1cc2c(ncc3c2c(CN2CCCCC2)cn3Cc2ccc(F)cc2)c(=O)n1O [Example 101, 3-(4-fluorobenzyl)-7-hydroxy-8-methyl-1-(piperidin-1-ylmethyl)-3,7-dihydro-6H-pyrrolo[2,3-c]-1,7-naphthyridin-6-one] | 14 nM | 0.46 nM | – | –
5 | COCCCc1cn(Cc2ccc(F)cc2)c2cnc3c(c12)CCN(O)C3=O [Example 94, 3-(4-fluorobenzyl)-7-hydroxy-1-(3-methoxypropyl)-3,7,8,9-tetrahydro-6H-pyrrolo[2,3-c]-1,7-naphthyridin-6-one] | 12 nM | 0.25 nM | – | –
6 | Cc1ncccc1COCc1cn(Cc2ccc(F)cc2)c2cnc3c(c12)CCN(O)C3=O [Example 64, 3-(4-fluorobenzyl)-7-hydroxy-1-{[(2-methylpyridin-3-yl)methoxy]methyl}-3,7,8,9-tetrahydro-6H-pyrrolo[2,3-c]-1,7-naphthyridin-6-one] | 9 nM | 1 nM | – | –
7 | O=c1c2ncc3c(c(CO)cn3Cc3ccc(F)cc3)c2ccn1O [Example 26, 3-(4-fluorobenzyl)-7-hydroxy-1-(hydroxymethyl)-3H-pyrrolo[2,3-c][1,7]naphthyridin-6(7H)-one] | 38 nM | 3 nM | – | –
8 | O=C1c2ncc3c(c(COCCOc4ccccc4)cn3Cc3ccc(F)cc3)c2CCN1O [Example 67, 3-(4-fluorobenzyl)-7-hydroxy-1-[(2-phenoxyethoxy)methyl]-3,7,8,9-tetrahydro-6H-pyrrolo[2,3-c]-1,7-naphthyridin-6-one] | 15 nM | 1 nM | – | –
9 | COC1CCN(C(=O)c2cn(Cc3ccc(F)cc3)c3cnc4c(c23)CCN(O)C4=O)CC1 [Example 15, 3-(4-fluorobenzyl)-7-hydroxy-1-[(4-methoxypiperidin-1-yl)carbonyl]-3,7,8,9-tetrahydro-6H-pyrrolo[2,3-c]-1,7-naphthyridin-6-one] | 14 nM | – | 28 nM | –
10 | O=C1c2ncc3c(c(CNCc4ccc(F)c(F)c4)cn3Cc3ccc(F)cc3)c2CCN1O [Example 48, 1-{[(3,4-difluorobenzyl)amino]methyl}-3-(4-fluorobenzyl)-7-hydroxy-3,7,8,9-tetrahydro-6H-pyrrolo[2,3-c]-1,7-naphthyridin-6-one] | 16.8 nM | 1 nM | – | –
11 | O=C1c2ncc3c(c(C(=O)N4CCCC4)cn3Cc3ccc(F)cc3)c2CCN1O [Example 14, 3-(4-fluorobenzyl)-7-hydroxy-1-(pyrrolidin-1-ylcarbonyl)-3,7,8,9-tetrahydro-6H-pyrrolo[2,3-c]-1,7-naphthyridin-6-one] | 16 nM | – | 7 nM | –
12 | CN(Cc1cn(Cc2ccc(F)cc2)c2cnc3c(c12)CCN(O)C3=O)CC(F)(F)F [Example 73, 3-(4-fluorobenzyl)-7-hydroxy-1-{[methyl(2,2,2-trifluoroethyl)amino]methyl}-3,7,8,9-tetrahydro-6H-pyrrolo[2,3-c]-1,7-naphthyridin-6-one] | 7 nM | 0.4 nM | – | –
13 | CN(CCCc1cn(Cc2ccc(F)cc2)c2cnc3c(c12)CCN(O)C3=O)Cc1ccccn1 [Example 122, 3-(4-fluorobenzyl)-7-hydroxy-1-{3-[methyl(pyridin-2-ylmethyl)amino]propyl}-3,7,8,9-tetrahydro-6H-pyrrolo[2,3-c]-1,7-naphthyridin-6-one] | 26 nM | 5 nM | – | –
14 | O=C1c2ncc3c(c(CNC4CCOCC4)cn3Cc3ccc(F)cc3)c2CCN1O [Example 69, 3-(4-fluorobenzyl)-7-hydroxy-1-[(tetrahydro-2H-pyran-4-ylamino)methyl]-3,7,8,9-tetrahydro-6H-pyrrolo[2,3-c]-1,7-naphthyridin-6-one] | 20 nM | 27 nM | – | –
15 | N#Cc1ccccc1Cn1ccc2c3c(ncc21)C(=O)N(O)CC3 [Example 84, 2-[(7-hydroxy-6-oxo-6,7,8,9-tetrahydro-3H-pyrrolo[2,3-c]-1,7-naphthyridin-3-yl)methyl]benzonitrile] | 125 nM | 32 nM | – | –
16 | CC(NCc1cn(Cc2ccc(F)cc2)c2cnc3c(=O)n(O)ccc3c12)c1ccc(Br)cc1 (stereo not drawn) [Example 36, 1-({[1-(4-bromophenyl)ethyl]amino}methyl)-3-(4-fluorobenzyl)-7-hydroxy-3,7-dihydro-6H-pyrrolo[2,3-c]-1,7-naphthyridin-6-one] | 10 nM | 3 nM | – | –
17 | Cc1cc2c(ncc3c2c(CN2CCCC2)cn3Cc2ccc(F)cc2)c(=O)n1O [Example 46, 3-(4-fluorobenzyl)-7-hydroxy-8-methyl-1-(pyrrolidin-1-ylmethyl)-3,7-dihydro-6H-pyrrolo[2,3-c]-1,7-naphthyridin-6-one] | 8.35 nM | 1.1 nM | – | –
18 | CC(C)N(CCOCc1cn(Cc2ccc(F)cc2)c2cnc3c(c12)CCN(O)C3=O)C(C)C [Example 80, 1-{[2-(diisopropylamino)ethoxy]methyl}-3-(4-fluorobenzyl)-7-hydroxy-3,7,8,9-tetrahydro-6H-pyrrolo[2,3-c]-1,7-naphthyridin-6-one] | 23 nM | 12 nM | – | –
19 | CN(CCc1cn(Cc2ccc(F)cc2)c2cnc3c(c12)CCN(O)C3=O)C1CCOCC1 [Example 108, 3-(4-fluorobenzyl)-7-hydroxy-1-(2-(methyl(tetrahydro-2H-pyran-4-yl)amino)ethyl)-8,9-dihydro-3H-pyrrolo[2,3-c][1,7]naphthyridin-6(7H)-one] | 21 nM | 16 nM | – | –
20 | O=c1c2ncc3c(c(-c4ccccn4)cn3Cc3ccc(F)cc3)c2ccn1O [Example 9, 3-(4-fluorobenzyl)-7-hydroxy-1-pyridin-2-yl-3,7-dihydro-6H-pyrrolo[2,3-c]-1,7-naphthyridin-6-one] | 29 nM | 2 nM | – | –
21 | O=C1c2ncc3c(c(CN4CCCC(F)(F)C4)cn3Cc3ccc(F)cc3)c2CCN1O [Example 39] | 10.3 nM | 0.279 nM | – | –
22 | CN(Cc1cn(Cc2ccc(F)cc2)c2cnc3c(c12)CCN(O)C3=O)C1CCCOC1 (stereo not drawn) [Example 50, 3-(4-fluorobenzyl)-7-hydroxy-1-{[methyl(tetrahydro-2H-pyran-3-yl)amino]methyl}-3,7,8,9-tetrahydro-6H-pyrrolo[2,3-c]-1,7-naphthyridin-6-one] | 11.9 nM | 1.8 nM | – | –
23 | N#Cc1cn(Cc2ccc(F)cc2)c2cnc3c(c12)CCN(O)C3=O [Example 54, 3-(4-fluorobenzyl)-7-hydroxy-6-oxo-6,7,8,9-tetrahydro-3H-pyrrolo[2,3-c]-1,7-naphthyridine-1-carbonitrile] | 20 nM | 6.6 nM | – | –
24 | O=C1c2ncc3c(c(CN4C[C@@H](F)[C@H](F)C4)cn3Cc3ccc(F)cc3)c2CCN1O [Example 72, 1-{[(3R,4R)-3,4-difluoropyrrolidin-1-yl]methyl}-3-(4-fluorobenzyl)-7-hydroxy-3,7,8,9-tetrahydro-6H-pyrrolo[2,3-c]-1,7-naphthyridin-6-one] | 9 nM | 0.5 nM | – | –
25 | CCCCOCc1cn(Cc2ccc(F)cc2)c2cnc3c(c12)CCN(O)C3=O [Example 60, 1-(butoxymethyl)-3-(4-fluorobenzyl)-7-hydroxy-3,7,8,9-tetrahydro-6H-pyrrolo[2,3-c]-1,7-naphthyridin-6-one] | 12 nM | 0.39 nM | – | –
26 | CN(C(=O)c1cn(Cc2ccc(F)cc2)c2cnc3c(c12)CCN(O)C3=O)C1CCOCC1 [Example 20, 3-(4-fluorobenzyl)-7-hydroxy-N-methyl-6-oxo-N-(tetrahydro-2H-pyran-4-yl)-6,7,8,9-tetrahydro-3H-pyrrolo[2,3-c]-1,7-naphthyridine-1-carboxamide] | 19 nM | – | 52 nM | –
27 | COC1CCN(Cc2cn(Cc3ccc(F)cc3)c3cnc4c(c23)CCN(O)C4=O)CC1 [Example 100, 3-(4-fluorobenzyl)-7-hydroxy-1-[(4-methoxypiperidin-1-yl)methyl]-3,7,8,9-tetrahydro-6H-pyrrolo[2,3-c]-1,7-naphthyridin-6-one] | 21 nM | 0.7 nM | – | –
28 | Cc1c(CN2CCOCC2)c2c(ncc3c2ccn3Cc2ccc(F)cc2)c(=O)n1O [Example 44, 3-(4-fluorobenzyl)-7-hydroxy-8-methyl-9-(morpholin-4-ylmethyl)-3,7-dihydro-6H-pyrrolo[2,3-c]-1,7-naphthyridin-6-one] | – | 0.45 nM | – | 9.07 nM
29 | O=C1c2ncc3c(c(CCN4CCOCC4)cn3Cc3ccc(F)cc3)c2CCN1O [Example 111, 3-(4-fluorobenzyl)-7-hydroxy-1-(2-morpholinoethyl)-8,9-dihydro-3H-pyrrolo[2,3-c][1,7]naphthyridin-6(7H)-one] | 12 nM | 4 nM | – | –
30 | COCCOCCCc1cn(Cc2ccc(F)cc2)c2cnc3c(c12)CCN(O)C3=O [Example 106, 3-(4-fluorobenzyl)-7-hydroxy-1-[3-(2-methoxyethoxy)propyl]-3,7,8,9-tetrahydro-6H-pyrrolo[2,3-c]-1,7-naphthyridin-6-one] | 14 nM | 0.95 nM | – | –
